Data: patent US10738041B2, “Ferroportin inhibitors” (Vifor (International) AG, priority 2015, dated 2020)

Test system: Hbb th3/+ mice
Experiment: Improvement of anemia, ineffective erythropoiesis and iron overload in a mouse model of β-thalassemia intermedia
Type: in vivo
Conditions: for Correction of anemia at day 20-48 (hemoglobin, difference to vehicle control) / Decrease in 58Fe spleen iron content / Decrease in blood reticulocyte counts / Decrease in leukocyte counts / Decrease in serum erythropoietin / Increase in blood erythrocyte counts / Increase in hematocrit / Prevention of liver 58Fe loading: 27 days (127) or 46 days (40); for Decrease in serum iron: Hbb th3/+ mice, % change to vehicle control
Method: The efficacy of Fpn inhibitors was investigated using a mouse model of transfusion-independent β-thalassemia. Mice with heterozygous deletion of β1 and β2 globin genes (called Hbb th3/+ mice) develop transfusion-independent anemia, ineffective erythropoiesis, splenomegaly and secondary iron overload in spleen, liver and kidneys. […] Hbb th3/+ mice were dosed twice daily with either compound at 20 or 60 mg/kg or with methylcellulose (10 ml/kg, Sigma, Cat. 274429) as a vehicle. Between both doses mice had access to drinking water supplemented with 1 mM ^58Fe(II)-sulfate (Vifor Pharma, Batch No. ROR 3096) and 10 mM ascorbic acid (Sigma, Cat. 795437) for 6 h. […] Water without ^58Fe(II)-Sulfate and ascorbic acid was provided during the remaining 18 h. Dosing of Fpn inhibitors or vehicle followed by exposure to iron-containing water was repeated for 20 to 46 days in individual experiments.
Additional hematologic parameters were measured in terminal blood using automated blood cell analyzer.
The inefficient erythropoiesis of Hbb th3/+ mice causes excessive proliferation of erythroid precursors in spleen, leading to splenomegaly.
Elevated erythropoietin levels in Hbb th3/+ mice hduced overexpression of erythroferrone, an erythroid regulator hormone known to suppress hepcidin (Kautz L. et al, Nat. Genet., 2014). […] Erythroferrone is produced by erythrocyte precursors proliferating massively in spleens of Hbb th3/+ mice as a consequence of extramedullar erythropoiesis.
Increased iron demand due to inefficient erythropoiesis and chronically low hepcidin levels in patients with thalassemia causes organ iron loading and associated morbidities, such as hepatocellular carcinoma and heart failure (Rivella S. Haematologica, 2015). Hbb th3/+ mice absorb excessive amounts of iron as a consequence of inadequately low hepcidin levels relative to the high iron content in liver, spleen and kidney and increased ferroportin expression in duodenum (Gardenghi S., Blood, 2007).
Additionally, reactive oxygen species (ROS) were detected in bone marrow cells using a fluorescent indicator, CM-H2DCFDA (Thermo Fisher Scientific, Cat. C6827).

Which “Decrease in RDW” value (20 mg/kg twice daily, 27 days (127)) does the source give for `O=C(NCc1ncccc1F)c1coc(CCNCCc2nc3ccccc3[nH]2)n1` [Example 127] here?
The value was 19%.

And the “Correction of anemia at day 20-48 (hemoglobin, difference to vehicle control)” value (20 mg/kg twice daily)?
Its value is 12 g/L.

What about the “Decrease in 58Fe spleen iron content” value (20 mg/kg twice daily) of the same compound?
Its value is 43%.

What about the “Decrease in blood reticulocyte counts” value (20 mg/kg twice daily) of the same compound?
The value was 16%.

What about the “Decrease in leukocyte counts” value (20 mg/kg twice daily) of the same compound?
Its value is 46%.

What about the “Decrease in serum erythropoietin” value (20 mg/kg twice daily) of the same compound?
The value was 32%.

What about the “Increase in blood erythrocyte counts” value (20 mg/kg twice daily) of the same compound?
The value was 0%.

What about the Increase in hematocrit (20 mg/kg twice daily) of the same compound?
The Increase in hematocrit was 3%.

What about the “Prevention of liver 58Fe loading” value (20 mg/kg twice daily) of the same compound?
Its value is 39%.

And the “Decrease in serum iron” value (20 mg/kg)?
Its value is 68%.

And the “Decrease in RDW” value (60 mg/kg twice daily, 27 days (127))?
The value was 25%.

What about the “Correction of anemia at day 20-48 (hemoglobin, difference to vehicle control)” value (60 mg/kg twice daily) of the same compound?
The value was 20 g/L.

What about the “Decrease in 58Fe spleen iron content” value (60 mg/kg twice daily) of the same compound?
Its value is 68%.

And the “Decrease in blood reticulocyte counts” value (60 mg/kg twice daily)?
Its value is 61%.

What about the “Decrease in leukocyte counts” value (60 mg/kg twice daily) of the same compound?
The value was 66%.

What about the “Decrease in serum erythropoietin” value (60 mg/kg twice daily) of the same compound?
Its value is 33%.

What about the “Increase in blood erythrocyte counts” value (60 mg/kg twice daily) of the same compound?
The value was 36%.

And the Increase in hematocrit (60 mg/kg twice daily)?
Its Increase in hematocrit is 20%.

What about the “Prevention of liver 58Fe loading” value (60 mg/kg twice daily) of the same compound?
The value was 59%.

And the “Decrease in serum iron” value (60 mg/kg)?
Its value is 81%.

What about the “Decreased in ROS in bone marrow erythrocytes” value (second value of the cell (60 mg/kg) twice daily, 27 days (127)) of the same compound?
The value was “NA/75%”.
